Data: ChEMBL document CHEMBL4270617, “Design, synthesis, antimicrobial, antiquorum-sensing and antitumor evaluation of new series of pyrazolopyridine derivatives” (Eur J Med Chem, 2018)

Tests used:
Staphylococcus aureus = assay: Antibacterial activity against Staphylococcus aureus ATCC 29213 after 24 hrs by two-fold serial dilution method; type: functional; conditions: ATCC 29213, 24 h
Bacillus cereus = assay: Antibacterial activity against Bacillus cereus UW 85 after 24 hrs by two-fold serial dilution method; type: functional; conditions: UW 85, 24 h
Escherichia coli = assay: Antibacterial activity against Escherichia coli ATCC 12435 after 24 hrs by two-fold serial dilution method; type: functional; conditions: ATCC 12435, 24 h
Pseudomonas aeruginosa = assay: Antibacterial activity against Pseudomonas aeruginosa PAO1 after 24 hrs by two-fold serial dilution method; type: functional; conditions: PAO1, 24 h
Candida albicans = assay: Antifungal activity against Candida albicans after 48 hrs by two-fold serial dilution method; type: functional
Aspergillus fumigatus = assay: Antifungal activity against Aspergillus fumigatus 293 after 48 hrs by two-fold serial dilution method; type: functional; conditions: Aspergillus fumigatus, 293, 48 h
Aspergillus flavus = assay: Antifungal activity against Aspergillus flavus 3375 after 48 hrs by two-fold serial dilution method; type: functional; conditions: Aspergillus flavus, 3375, 48 h
[1] = test system: Chromobacterium violaceum; assay: Inhibition of quorum sensing system in Chromobacterium violaceum ATCC 12472 assessed as diameter of violacein pigment inhibition at 5 mg/ml after 48 hrs
HepG2 = assay: Antitumor activity against human HepG2 cells assessed as inhibition of cell proliferation after 48 hrs by MTT assay; type: functional, cell-based; conditions: HepG2, 48 h
MCF7 = assay: Antitumor activity against human MCF7 cells assessed as inhibition of cell proliferation after 48 hrs by MTT assay; type: functional, cell-based; conditions: MCF7, 48 h
HeLa = assay: Antitumor activity against human HeLa cells assessed as inhibition of cell proliferation after 48 hrs by MTT assay; type: functional, cell-based; conditions: read-out: IC50
[2] = Displacement of methyl green from DNA (unknown origin) incubated in dark for 24 hrs

SMILES	MIC (Staphylococcus aureus)	MIC (Bacillus cereus)	MIC (Escherichia coli)	MIC (Pseudomonas aeruginosa)	MIC (Candida albicans)	MIC (Aspergillus fumigatus)	MIC (Aspergillus flavus)	diameter of the inhibition zone (DIZ) [1]	IC50 (HepG2)	IC50 (MCF7)	IC50 (HeLa)	IC50 [2]
CCOC(=O)C1=C(N/N=C(/C#N)C(=O)OCC)Nc2[nH]nc(C)c2C1c1ccc(N(C)C)cc1 (stereo unspecified)	2150 µM	1070 µM	1070 µM	1070 µM	537 µM	2150 µM	2150 µM	< 2 mm	46.4 µM	35.6 µM	39.2 µM	–
CC1(C)S[C@@H]2[C@H](NC(=O)[C@H](N)c3ccccc3)C(=O)N2[C@H]1C(=O)O [AMPICILLIN]	716 µM	1430 µM	28.6 µM	–	–	–	–	–	–	–	–	–
CCOC(=O)C1=C(N/C=N/c2ccc(C)cc2)Nc2[nH]nc(C)c2C1c1ccc(N(C)C)cc1 (stereo unspecified)	136 µM	136 µM	2180 µM	2180 µM	> 200 µg/mL	2180 µM	2180 µM	< 2 mm	44.4 µM	50.5 µM	43.2 µM	76.4 µM
CCOC(=O)C1=C(N/N=C(/Cl)C#N)Nc2[nH]nc(C)c2C1c1ccc(N(C)C)cc1 (stereo unspecified)	> 200 µg/mL	2340 µM	2340 µM	1170 µM	4670 µM	4670 µM	2340 µM	< 2 mm	23.6 µM	23.2 µM	26.2 µM	–
COc1ccc(C2C(C#N)=C(NC(=O)c3ccccc3)Nc3[nH]nc(-c4ccccc4)c32)cc1 (stereo unspecified)	–	–	–	–	–	–	–	–	–	–	–	39.4 to 82.8 µM
COc1ccc(C2C(C#N)=C(NC(=O)/C=C/C(=O)O)Nc3[nH]nc(-c4ccccc4)c32)cc1 (stereo unspecified)	–	–	–	–	–	–	–	–	–	–	–	39.4 to 82.8 µM
CCOC(=O)C1=C(N/C=N/c2ccc([N+](=O)[O-])cc2)Nc2[nH]nc(C)c2C1c1ccc(N(C)C)cc1 (stereo unspecified)	255 µM	1050 µM	128 µM	128 µM	2040 µM	4090 µM	4090 µM	7 mm	50.9 µM	58.6 µM	57.8 µM	59.6 µM
CCOC(=O)C1=C(N/N=C(\c2ccc([N+](=O)[O-])cc2)N2CCN(c3ccc(F)cc3)CC2)Nc2[nH]nc(C)c2C1c1ccc(N(C)C)cc1 (stereo unspecified)	749 µM	374 µM	187 µM	187 µM	749 µM	3000 µM	3000 µM	< 2 mm	90.2 µM	> 100 µM	87 µM	51.8 µM
OC(Cn1cncn1)(Cn1cncn1)c1ccc(F)cc1F [FLUCONAZOLE]	–	> 200 µg/mL	> 200 µg/mL	> 200 µg/mL	6530 µM	> 200 µg/mL	> 200 µg/mL	–	–	–	–	–
CCOC(=O)C1=C(N/N=C(\C#N)C(N)=O)Nc2[nH]nc(C)c2C1c1ccc(N(C)C)cc1 (stereo unspecified)	4580 µM	2290 µM	1150 µM	1150 µM	4580 µM	4580 µM	4580 µM	< 2 mm	48.4 µM	50.1 µM	47.3 µM	–
CCOC(=O)C1=C(N/N=C(/C(=O)Br)c2ccc(Cl)cc2)Nc2[nH]nc(C)c2C1c1ccc(N(C)C)cc1 (stereo unspecified)	427 µM	427 µM	1710 µM	1710 µM	3410 µM	3410 µM	3410 µM	< 2 mm	50.2 µM	46.3 µM	49.3 µM	80.7 µM
CCOC(=O)C1=C(N/C=N/c2nnc(S(N)(=O)=O)s2)Nc2[nH]nc(C)c2C1c1ccc(N(C)C)cc1 (stereo unspecified)	118 µM	118 µM	940 µM	940 µM	940 µM	940 µM	940 µM	9 mm	38.1 µM	34.5 µM	26.3 µM	79.1 µM
CCOC(=O)C1=C(N/N=C(/Br)c2ccccc2)Nc2[nH]nc(C)c2C1c1ccc(N(C)C)cc1 (stereo unspecified)	955 µM	955 µM	955 µM	478 µM	1910 µM	1910 µM	1910 µM	11 mm	72 µM	78.4 µM	75.7 µM	–
CCOC(=O)C1=C(N/N=C(/Cl)c2ccc([N+](=O)[O-])cc2)Nc2[nH]nc(C)c2C1c1ccc(N(C)C)cc1 (stereo unspecified)	954 µM	1910 µM	1910 µM	954 µM	3820 µM	1910 µM	1910 µM	< 2 mm	55.5 µM	52.7 µM	46.2 µM	–
CCOC(=O)C(=NNC1=C(C(=O)OCC)C(c2ccc(N(C)C)cc2)c2c(C)n[nH]c2N1)C(=O)OCC (stereo unspecified)	976 µM	976 µM	976 µM	976 µM	3900 µM	1950 µM	1950 µM	< 2 mm	80.8 µM	89.8 µM	83.8 µM	–
CCOC(=O)C1=C(N/N=C(/C(C)=O)C(=O)OCC)Nc2[nH]nc(C)c2C1c1ccc(N(C)C)cc1 (stereo unspecified)	2070 µM	518 µM	518 µM	518 µM	4140 µM	2070 µM	2070 µM	< 2 mm	> 100 µM	> 100 µM	> 100 µM	68.2 µM
CCOC(=O)C1=C(N/C=N/c2ccccn2)Nc2[nH]nc(C)c2C1c1ccc(N(C)C)cc1 (stereo unspecified)	70.1 µM	70.1 µM	281 µM	281 µM	561 µM	281 µM	281 µM	< 2 mm	26.2 µM	37.3 µM	29.2 µM	28 µM
Oc1cc(O)c2c(c1)O[C@H](c1ccc(O)c(O)c1)[C@@H](O)C2	–	–	–	–	–	–	–	2 mm	–	–	–	–
CCOC(=O)C1=C(N/N=C(\C(C)=O)C(=O)c2ccccc2)Nc2[nH]nc(C)c2C1c1ccc(N(C)C)cc1 (stereo unspecified)	1940 µM	1940 µM	1940 µM	972 µM	1940 µM	3890 µM	3890 µM	< 2 mm	42.3 µM	47.3 µM	47.4 µM	–
COc1ccc(C2C(C#N)=C(/N=C/OC(C)=O)Nc3[nH]nc(-c4ccccc4)c32)cc1 (stereo unspecified)	–	–	–	–	–	–	–	–	–	–	–	39.4 to 82.8 µM
CCOC(=O)C1=C(N/N=C(/C(=O)Br)c2ccc(Br)cc2)Nc2[nH]nc(C)c2C1c1ccc(N(C)C)cc1 (stereo unspecified)	99.1 µM	99.1 µM	397 µM	397 µM	397 µM	793 µM	1590 µM	< 2 mm	65 µM	61.3 µM	68.5 µM	43.7 µM
